Source: patent publication US9918990B2, “Substituted pyrrolo[2,3-c]pyridines and pyrazolo[3,4-c]pyridines as BET protein inhibitors” (Incyte Corporation, priority 2013, dated 2018)
Structures can show the parent of a compound that is named as a salt.

Key:
BRD4-BD2 = BRD4-BD2 (Homo sapiens (Human), UniProt O60885); assay: BRD4 AlphaScreen assay, BRD4-BD2; format: binding; details: H4Ac4 peptide, 75 min, room temperature, read-out: BRD4 BD-2 enzyme IC50
Experimental: (§1) BRD4-BD1 and BRD4-BD2 assays were conducted in white 384-well polystyrene plate in a final volume of 20 μL for BD1 and 40 μL for BD2. Inhibitors were first serially diluted in DMSO and added to the plate wells before the addition of other reaction components. […] After plate sealing, the plate was incubated in the dark at room temperature for 75 min. before reading on a PHERAstar FS plate reader (BMG Labtech). IC50 determination was performed by fitting the curve of percent control activity versus the log of the inhibitor concentration using the GraphPad Prism 5.0 software.

BRD4-BD1 = BRD4-BD1 (Homo sapiens (Human), UniProt O60885); assay: BRD4 AlphaScreen assay, BRD4-BD1; format: binding; details: H4Ac4 peptide, 75 min, room temperature, read-out: BRD4 BD-1 enzyme IC50
Experimental: as §1

| Compound | IC50 (BRD4-BD2) [nM] | IC50 (BRD4-BD1) [nM] |
| --- | --- | --- |
| COc1c(-c2cn(C)c(=O)c3[nH]ccc23)ccc2c1n(CCN1CCOCC1)c(=O)n2C [Example 50, 4-Methoxy-1-methyl-5-(6-methyl-7-oxo-6,7-dihydro-1H-pyrrolo[2,3-c]pyridin-4-yl)-3-(2-morpholin-4-ylethyl)-1,3-dihydro-2H-benzimidazol-2-one] | < 100 | 100 to 1000 |
| C[C@@H]1CN(CCn2c(NCc3ccccc3)nc3c(Oc4ccccc4)c(-c4cn(C)c(=O)c5[nH]ccc45)ccc32)C[C@H](C)O1 [Example 71, 4-(2-(Benzylamino)-1-{2-[(2R,6S)-2,6-dimethylmorpholin-4-yl]ethyl}-4-phenoxy-1H-benzimidazol-5-yl)-6-methyl-1,6-dihydro-7H-pyrrolo[2,3-c]pyridin-7-one trifluoroacetate] | 1000 to 10000 | 1000 to 10000 |
| CCOc1c(-c2cn(C)c(=O)c3[nH]ccc23)c(C)nc2cc(C)nn12 [Example 73, 4-(7-Ethoxy-2,5-dimethylpyrazolo[1,5-a]pyrimidin-6-yl)-6-methyl-1,6-dihydro-7H-pyrrolo[2,3-c]pyridin-7-one] | 100 to 1000 | 1000 to 10000 |
| Cn1cnc2c(Oc3ccc(F)cc3F)c(-c3c[nH]c(=O)c4[nH]ccc34)ccc21 [Example 82, 4-[4-(2,4-Difluorophenoxy)-1-methyl-1H-benzimidazol-5-yl]-1,6-dihydro-7H-pyrrolo[2,3-c]pyridin-7-one] | 100 to 1000 | 100 to 1000 |
| Cn1cnc2c(Oc3ccc(F)cc3F)c(-c3cn(Cc4ccccc4)c(=O)c4[nH]ccc34)ccc21 [Example 84, 6-Benzyl-4-[4-(2,4-difluorophenoxy)-1-methyl-1H-benzimidazol-5-yl]-1,6-dihydro-7H-pyrrolo[2,3-c]pyridin-7-one trifluoroacetate] | 100 to 1000 | 1000 to 10000 |
| Cn1cnc2c(Oc3ccc(F)cc3F)c(-c3cn(CC#N)c(=O)c4[nH]ccc34)ccc21 [Example 85, {4-[4-(2,4-Difluorophenoxy)-1-methyl-1H-benzimidazol-5-yl]-7-oxo-1,7-dihydro-6H-pyrrolo[2,3-c]pyridin-6-yl}acetonitrile trifluoroacetate] | 100 to 1000 | 1000 to 10000 |
| CCS(=O)(=O)c1c(-c2cn(C)c(=O)c3[nH]ccc23)ccc2c1[nH]c(=O)n2C [Example 99, 4-(Ethylsulfonyl)-1-methyl-5-(6-methyl-7-oxo-6,7-dihydro-1H-pyrrolo[2,3-c]pyridin-4-yl)-1,3-dihydro-2H-benzimidazol-2-one] | 100 to 1000 | 1000 to 10000 |
| Cn1cc(-c2ccc3c(c2Oc2ccccc2)N(Cc2ccccc2)C(=O)CO3)c2cc[nH]c2c1=O [Example 101, 4-Benzyl-6-(6-methyl-7-oxo-6,7-dihydro-1H-pyrrolo[2,3-c]pyridin-4-yl)-5-phenoxy-2H-1,4-benzoxazin-3(4H)-one] | 100 to 1000 | 100 to 1000 |
| Cn1cc(-c2ccc3c(c2Oc2ccccc2)N(CCN2CCOCC2)C(=O)CO3)c2cc[nH]c2c1=O [Example 102, 6-(6-Methyl-7-oxo-6,7-dihydro-1H-pyrrolo[2,3-c]pyridin-4-yl)-4-(2-morpholin-4-ylethyl)-5-phenoxy-2H-1,4-benzoxazin-3(4H)-one trifluoroacetate] | < 100 | 100 to 1000 |
| Cn1cc(-c2ccc3c(c2Oc2ccccc2)NC(c2ccccc2)CO3)c2cc[nH]c2c1=O (centres unmarked) [Example 110, 6-Methyl-4-(5-phenoxy-3-phenyl-3,4-dihydro-2H-1,4-benzoxazin-6-yl)-1,6-dihydro-7H-pyrrolo[2,3-c]pyridin-7-one] | < 100 | 100 to 1000 |
